Data taken from patent publication US9399626B2, “2-thiopyrimidinones” (Pfizer Inc., priority 2011, dated 2016).
Counter-ions that a name gives are not always drawn.

target: T1, MPO (purified from human polynuclear leukocytes) (Homo sapiens, UniProt P05164); experiment: MPO Amplex Red Activity Assay; assay type: biochemical; conditions: Table 1, 2 μM H2O2, pH 7.4
T1 construct: purified from human polynuclear leukocytes; purchased Calbiochem/EMD Biosciences; host or cells: human polynuclear leukocytes (natural source)
Method in brief: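 Human leukocyte MPO […] oxidises 30 μM Amplex Red with 2 μM H2O2 in 50 mM NaPi pH 7.4, 150 mM NaCl, 1 mM DTPA, 2% DMSO. Resorufin fluorescence (ex 530/em 580 nm) read every 20 s, minus catalase background. kobs from the first 600 s, corrected for auto-inactivation, fit versus [I] for kinact/KI.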

T1 sequence (P05164 279-745 limits assumed): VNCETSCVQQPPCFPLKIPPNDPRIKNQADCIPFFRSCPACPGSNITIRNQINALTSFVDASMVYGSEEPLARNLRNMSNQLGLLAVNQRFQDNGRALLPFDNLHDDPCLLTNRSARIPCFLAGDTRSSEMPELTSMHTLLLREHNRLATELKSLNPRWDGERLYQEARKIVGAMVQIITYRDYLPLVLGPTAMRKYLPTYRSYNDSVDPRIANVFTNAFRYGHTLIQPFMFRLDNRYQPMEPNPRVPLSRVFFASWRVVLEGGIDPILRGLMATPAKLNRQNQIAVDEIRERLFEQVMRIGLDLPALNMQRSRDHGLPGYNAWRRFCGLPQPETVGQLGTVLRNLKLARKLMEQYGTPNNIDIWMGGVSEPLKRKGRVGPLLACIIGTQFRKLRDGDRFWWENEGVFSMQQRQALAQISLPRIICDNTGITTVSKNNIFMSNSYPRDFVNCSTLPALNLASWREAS
T1 sequence (P05164 165-273 limits assumed): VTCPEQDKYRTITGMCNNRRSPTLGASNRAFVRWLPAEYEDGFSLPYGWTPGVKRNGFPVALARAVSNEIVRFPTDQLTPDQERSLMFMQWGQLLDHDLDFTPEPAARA

Row | Compound | MPO kinact/Ki
1 | COc1ccc(-c2cc(=O)[nH]c(=S)n2CCOC(C)C)cc1 [Example 172, 1-(2-isopropoxyethyl)-6-(4-methoxyphenyl)-2-thioxo-2,3-dihydropyrimidin-4(1H)-one] | 2950 1/s per M
2 | NC(=O)Cn1c(-c2ccc3c(c2)CCO3)cc(=O)[nH]c1=S [Example 37, 2-[6-(2,3-dihydro-1-benzofuran-5-yl)-4-oxo-2-thioxo-3,4-dihydropyrimidin-1(2H)-yl]acetamide] | 6460 1/s per M
3 | NCCCn1c(-c2ccc3c(c2)OCCO3)cc(=O)[nH]c1=S [Example 76, 1-(3-aminopropyl)-6-(2,3-dihydro-1,4-benzodioxin-6-yl)-2-thioxo-2,3-dihydropyrimidin-4(1H)-one hydrochloride] | 4190 1/s per M
4 | COc1ccc(-c2cc(=O)[nH]c(=S)n2CC(=O)NCCN)c(OC)c1 [Example 241, N-(2-aminoethyl)-2-(6-(2,4-dimethoxyphenyl)-4-oxo-2-thioxo-3,4-dihydropyrimidin-1(2H)-yl)acetamide hydrochloride] | 7060 1/s per M
5 | COc1ccc(-c2cc(=O)[nH]c(=S)n2CCCCN)c(OC)c1 [Example 191, 1-(4-aminobutyl)-6-(2,4-dimethoxyphenyl)-2-thioxo-2,3-dihydropyrimidin-4(1H)-one hydrochloride] | 14100 1/s per M

Further lines, results first:

Row | MPO kinact/Ki | Compound
6 | 2120 1/s per M | NCCCn1c(-c2n[nH]c3ccccc23)cc(=O)[nH]c1=S [Example 32, 1-(3-aminopropyl)-6-(1H-indazol-3-yl)-2-thioxo-2,3-dihydropyrimidin-4(1H)-one formate]
7 | 4460 1/s per M | COc1ccccc1-c1cc(=O)[nH]c(=S)n1CC(N)=O [Example 17, 2-[6-(2-methoxyphenyl)-4-oxo-2-thioxo-3,4-dihydropyrimidin-1(2H)-yl]acetamide]
8 | 8890 1/s per M | O=c1cc(-c2ccccc2OCCO)n(CCO)c(=S)[nH]1 [Example 168, 6-[2-(2-hydroxyethoxy)phenyl]-1-(2-hydroxyethyl)-2-thioxo-2,3-dihydropyrimidin-4(1H)-one]
9 | 17100 1/s per M | COCCn1c(-c2cc(C)ccc2OC)cc(=O)[nH]c1=S [Example 312, 1-(2-methoxyethyl)-6-(2-methoxy-5-methylphenyl)-2-thioxo-2,3-dihydropyrimidin-4(1H)-one]
10 | 2480 1/s per M | COCCn1c(-c2cccc3ncccc23)cc(=O)[nH]c1=S [Example 321, 1-(2-methoxyethyl)-6-quinolin-5-yl-2-thioxo-2,3-dihydropyrimidin-4(1H)-one]

same assay, conditions: Table 1A, 2 μM H2O2, pH 7.4

Row | MPO kinact/Ki | Compound
11 | 4780 1/s per M | COc1ccc(-c2cc(=O)[nH]c(=S)n2CC(=O)N2CC[C@H](N)C2)c(OC)c1 [Example 398, 1-{2-[(3S)-3-aminopyrrolidin-1-yl]-2-oxoethyl}-6-(2,4-dimethoxyphenyl)-2-thioxo-2,3-dihydropyrimidin-4(1H)-one]
12 | 7730 1/s per M | COc1ccc(Cl)cc1-c1cc(=O)[nH]c(=S)n1CCCNC(=N)N1CCCC1 [Example 450, N-{3-[6-(5-chloro-2-methoxyphenyl)-4-oxo-2-thioxo-3,4-dihydropyrimidin-1(2H)-yl]propyl}pyrrolidine-1-carboximidamide]
13 | 8040 1/s per M | COc1ccc(Cl)cc1-c1cc(=O)[nH]c(=S)n1CC(=O)NCCN [Example 369, N-(2-aminoethyl)-2-[6-(5-chloro-2-methoxyphenyl)-4-oxo-2-thioxo-3,4-dihydropyrimidin-1(2H)-yl]acetamide]
14 | 2420 1/s per M | CCCNC(=O)Cn1c(-c2ccc(OC)cc2OC)cc(=O)[nH]c1=S [Example 435, 2-[6-(2,4-dimethoxyphenyl)-4-oxo-2-thioxo-3,4-dihydropyrimidin-1(2H)-yl]-N-propylacetamide]
15 | 13600 1/s per M | O=c1cc(-c2ccccc2O)n(CCO)c(=S)[nH]1 [Example 366, 1-(2-hydroxyethyl)-6-(2-hydroxyphenyl)-2-thioxo-2,3-dihydropyrimidin-4(1H)-one]
